Test results from article PMC9863297, “Intermolecular Interactions of Edaravone in Aqueous Solutions of Ethaline and Glyceline Inferred from Experiments and Quantum Chemistry Computations” (Molecules, 2023).
Read-outs that look alike come from different tables or passages of the source.

Assay: Edaravone solubility, slurry/shake-flask method with spectrophotometric determination at 243 nm
Type: physicochemical
Conditions: for solubility at 24 h: thermodynamic from solid, read-out: cE solubility concentration; for mole fraction solubility advantage of 1:2 composition over unimolar composition: DES involving ethylene glycol; for volume of saturated solution containing the recommended 60 mg: solubility at 298.15 K
Method: The first step in obtaining a calibration curve was the preparation of a stock solution of edaravone with a concentration of 2.3 mg/mL. This initial solution was successfully diluted in 10 mL volumetric flasks with methanol and the obtained solutions with decreasing concentrations were measured spectrophotometrically. […] Three separate curves were obtained, and the final curve resulted from averaging. […] The limits of detection (LOD) and quantification (LOQ) were calculated as 5.899∙10^−4 mg/mL and 1.770∙10^−3 mg/mL, respectively.
All of the studied deep eutectic solvents included choline chloride, while the second constituent was either glycerol or ethylene glycol. In order to prepare a DES formulation, choline chloride was mixed with the second compound in different molar ratios in sealed test tubes and placed in a water bath at 363.15 K until the formation of a uniform solution. The obtained DES were either used in their neat form or water was added to them in different proportions in order to form binary systems.
During the next stage, edaravone was added in excess amounts to the test tubes containing both neat DES and binary mixtures, which enabled us to obtain its saturated solutions. Samples prepared in such a manner were placed in an Orbital Shaker Incubator ES-20/60 from Biosan (Riga, Latvia) and incubated for 24 h at different temperatures, namely 298.15 K, 303.15 K, 308.15 K and 313.15 K. The temperature adjustment accuracy was 0.1 K and its variability in a 24 h cycle was ±0.5 K. Apart from heating, all of the samples were mixed at 60 rev/min. The increased viscosity and density of DES systems required the samples to be centrifuged at 1000 rev/min for 5 min with the use of EBA 20 centrifuge from Hettich (Tuttlingen, Germany) enabling the undissolved precipitate to remain on the bottom of the test tubes. Next, the samples were filtered using a syringe equipped with a PTFE syringe filer with 0.22 µm pore size. In order to avoid precipitation, the test tubes, syringes and filters were initially heated at a temperature equal to the one of the handled samples. Finally, small amounts of the obtained filtrate were transferred to test tubes filled with methanol and the diluted samples were measured spectrophotometrically. Additionally, for the determination of the mole fractions of edaravone, the density of the samples was measured by weighing a fixed volume of the solution in 10 mL volumetric flasks.
For determining the solubility of edaravone in the studied systems, the samples prepared, as described above, were measured spectrophotometrically using an A360 spectrophotometer from AOE Instruments (Shanghai, China). The spectra were recorded in the 190 nm to 500 nm wavelength range and 1 nm resolution. Methanol was used for the initial calibration of the spectrophotometer and for the dilution of the measured samples, which was conducted in order for the absorbance values to remain below 2.5. The absorbance values at 243 nm were taken into account and based on the calibration curve prepared earlier, the concentration of edaravone in the samples was determined, followed by its mole fractions. The values were averaged from three separate measurements.

A solubility at 24 h (40 °C, aqueous with cosolvent or surfactant or cyclodextrin, water + GLE (ChCl:GL 1:2), x*GLE = 0.6, 313.15 K) of 692 mg/mL, a solubility at 24 h (40 °C, aqueous with cosolvent or surfactant or cyclodextrin, water + GLE (ChCl:GL 1:2), x*GLE = 0.8, 313.15 K) of 602 mg/mL and a solubility at 24 h (40 °C, organic solvent or mixture, neat DES choline chloride + glycerol (GLE) 1:1 molar ratio, 313.15 K) of 398 mg/mL were found for `CC1=NN(c2ccccc2)C(=O)C1` [edaravone, 5-methyl-2-phenyl-4H-pyrazol-3-one] in this work. The solubility at 24 h (40 °C, organic solvent or mixture, neat DES choline chloride + glycerol (GLE) 1:2 molar ratio (x*GLE = 1.0), 313.15 K) was 492 mg/mL, the solubility at 24 h (40 °C, organic solvent or mixture, neat DES choline chloride + glycerol (GLE) 1:4 molar ratio, 313.15 K) was 470 mg/mL and the “mole fraction solubility advantage of 1:2 composition over unimolar composition” value (298.15 K) was 53%. The “mole fraction solubility advantage of 1:2 composition over unimolar composition” value (313.15 K) was 21%, the solubility at 24 h (deep eutectic solvent + water binary mixture, 25 °C, aqueous with cosolvent or surfactant or cyclodextrin, water + ETA (ChCl:EG 1:2), x*ETA = 0.8, 298.15 K) was 363 mg/mL and the solubility at 24 h (deep eutectic solvent + water binary mixture, 30 °C, aqueous with cosolvent or surfactant or cyclodextrin, water + ETA (ChCl:EG 1:2), x*ETA = 0.6, 303.15 K) was 561 mg/mL. The solubility at 24 h (deep eutectic solvent + water binary mixture, 30 °C, aqueous with cosolvent or surfactant or cyclodextrin, water + ETA (ChCl:EG 1:2), x*ETA = 0.8, 303.15 K) was 452 mg/mL, the solubility at 24 h (deep eutectic solvent + water binary mixture, 35 °C, aqueous with cosolvent or surfactant or cyclodextrin, water + ETA (ChCl:EG 1:2), x*ETA = 0.5, 308.15 K) was 664 mg/mL and the solubility at 24 h (deep eutectic solvent + water binary mixture, 35 °C, aqueous with cosolvent or surfactant or cyclodextrin, water + ETA (ChCl:EG 1:2), x*ETA = 0.6, 308.15 K) was 670 mg/mL. It also gave a solubility at 24 h (deep eutectic solvent + water binary mixture, 35 °C, aqueous with cosolvent or surfactant or cyclodextrin, water + ETA (ChCl:EG 1:2), x*ETA = 0.8, 308.15 K) of 561 mg/mL, a solubility at 24 h (deep eutectic solvent + water binary mixture, 40 °C, aqueous with cosolvent or surfactant or cyclodextrin, water + ETA (ChCl:EG 1:2), x*ETA = 0.5, 313.15 K) of 744 mg/mL and a solubility at 24 h (deep eutectic solvent + water binary mixture, 40 °C, aqueous with cosolvent or surfactant or cyclodextrin, water + ETA (ChCl:EG 1:2), x*ETA = 0.6, 313.15 K) of 753 mg/mL. For the same molecule, the solubility at 24 h (deep eutectic solvent + water binary mixture, 40 °C, aqueous with cosolvent or surfactant or cyclodextrin, water + ETA (ChCl:EG 1:2), x*ETA = 0.8, 313.15 K) was 655 mg/mL, the “solubility increase in optimal binary composition compared to neat DES” value (glycerol-containing systems, x*DES = 0.6, average) was 28% and the “volume of saturated solution containing the recommended 60 mg” value (neat DES ETA) was 0.20 mL. The “volume of saturated solution containing the recommended 60 mg” value (neat DES GLE) was 0.32 mL, the “xE mole fraction solubility” value (neat DES choline chloride + ethylene glycol (ETA) 1:1 molar ratio, 298.15 K) was 1031.93 (±62.91) mole fraction ∙10^4 and the “xE mole fraction solubility” value (neat DES choline chloride + ethylene glycol (ETA) 1:1 molar ratio, 303.15 K) was 1400.98 (±40.74) mole fraction ∙10^4. For the same molecule, the “xE mole fraction solubility” value (neat DES choline chloride + ethylene glycol (ETA) 1:1 molar ratio, 308.15 K) was 2089.82 (±49.36) mole fraction ∙10^4, the “xE mole fraction solubility” value (neat DES choline chloride + ethylene glycol (ETA) 1:1 molar ratio, 313.15 K) was 2966.24 (±120.59) mole fraction ∙10^4 and the “xE mole fraction solubility” value (neat DES choline chloride + ethylene glycol (ETA) 1:2 molar ratio (x*ETA = 1.0), 298.15 K) was 1579.47 (±70.73) mole fraction ∙10^4. For the same molecule, the “xE mole fraction solubility” value (neat DES choline chloride + ethylene glycol (ETA) 1:2 molar ratio (x*ETA = 1.0), 303.15 K) was 2135.68 (±42.46) mole fraction ∙10^4, the “xE mole fraction solubility” value (neat DES choline chloride + ethylene glycol (ETA) 1:2 molar ratio (x*ETA = 1.0), 308.15 K) was 2878.22 (±133.85) mole fraction ∙10^4 and the “xE mole fraction solubility” value (neat DES choline chloride + ethylene glycol (ETA) 1:2 molar ratio (x*ETA = 1.0), 313.15 K) was 3602.21 (±117.41) mole fraction ∙10^4. The “xE mole fraction solubility” value (neat DES choline chloride + ethylene glycol (ETA) 1:4 molar ratio, 298.15 K) was 1306.68 (±55.75) mole fraction ∙10^4, the “xE mole fraction solubility” value (neat DES choline chloride + ethylene glycol (ETA) 1:4 molar ratio, 303.15 K) was 1677.66 (±47.52) mole fraction ∙10^4 and the “xE mole fraction solubility” value (neat DES choline chloride + ethylene glycol (ETA) 1:4 molar ratio, 308.15 K) was 2434.99 (±114.12) mole fraction ∙10^4. The “xE mole fraction solubility” value (neat DES choline chloride + ethylene glycol (ETA) 1:4 molar ratio, 313.15 K) was 3428.20 (±105.69) mole fraction ∙10^4, the “xE mole fraction solubility” value (neat DES choline chloride + glycerol (GLE) 1:1 molar ratio, 298.15 K) was 786.83 (±3.34) mole fraction ∙10^4 and the “xE mole fraction solubility” value (neat DES choline chloride + glycerol (GLE) 1:1 molar ratio, 303.15 K) was 1173.65 (±39.25) mole fraction ∙10^4. For the same molecule, the “xE mole fraction solubility” value (neat DES choline chloride + glycerol (GLE) 1:1 molar ratio, 308.15 K) was 1615.31 (±40.69) mole fraction ∙10^4, the “xE mole fraction solubility” value (neat DES choline chloride + glycerol (GLE) 1:1 molar ratio, 313.15 K) was 2429.30 (±72.71) mole fraction ∙10^4 and the “xE mole fraction solubility” value (neat DES choline chloride + glycerol (GLE) 1:2 molar ratio (x*GLE = 1.0), 298.15 K) was 1052.85 (±68.85) mole fraction ∙10^4.
